Data: patent US5856166A, “Streptomyces proteases and methods for improved secretion of recombinantly-expressed proteins” (Cangene Corporation, priority 1994, dated 1999)
Read-outs that look alike come from different tables or passages of the source. Where a SMILES comes first, the peptide text is derived from it. [ ]: non-standard residue; d: D form. The star is where a group is joined. Sta = CC(C)C[C@H](N)[C@@H](O)CC(=O)O; pNA = O=[N+]([O-])c1ccc(N*)cc1; AMC = Cc1cc(=O)oc2cc(N*)ccc12; Isovaleryl = CC(C)CC(=O)*; βNA = c1ccc2cc(N*)ccc2c1; Boc = CC(C)(C)OC(=O)*

Tests used:
[1] = molecular target: T1, Tap (tripeptidyl aminopeptidase) (Streptomyces lividans, UniProt Q54410); assay: Release of reporter group from synthetic substrates by pure Tap; assay type: biochemical, S. lividans 66
T1 construct: An autolytic tripeptide cleavage removing APA after signal peptide removal would yield the N-terminal found for the secreted protease; made in house; host or cells: Streptomyces lividans 66 (wild-type strain, native secreted enzyme purified from the broth)
T1 sequence (Q54410 40-537): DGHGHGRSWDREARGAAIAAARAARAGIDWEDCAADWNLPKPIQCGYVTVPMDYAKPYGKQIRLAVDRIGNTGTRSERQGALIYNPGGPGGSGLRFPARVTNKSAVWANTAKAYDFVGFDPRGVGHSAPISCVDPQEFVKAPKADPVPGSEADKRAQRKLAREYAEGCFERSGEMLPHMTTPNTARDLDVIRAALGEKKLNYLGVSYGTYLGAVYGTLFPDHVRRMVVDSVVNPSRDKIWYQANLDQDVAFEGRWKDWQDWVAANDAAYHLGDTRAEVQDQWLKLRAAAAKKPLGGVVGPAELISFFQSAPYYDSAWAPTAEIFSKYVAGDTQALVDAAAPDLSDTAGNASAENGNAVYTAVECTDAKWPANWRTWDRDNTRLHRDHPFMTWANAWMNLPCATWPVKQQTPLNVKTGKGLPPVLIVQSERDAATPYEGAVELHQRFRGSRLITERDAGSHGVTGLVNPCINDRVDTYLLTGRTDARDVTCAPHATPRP
Method: The enzyme was also active when APM-pNA, APA-AMC, APS-bNA, GPL-bNA, and SPA-bNA were used as substrates. […] The enzyme only released the reporter group from substrates with a free amino terminal.
(§1) The assay was conducted in a 96 well microtiter plate. To each well in the assay, 50 ul 100 mM Tris-HCl, pH 8.0, were added followed by 25 ul 3.2 mM APA-pNA. 25 ul of Tap were added to the wells and the absorbance was read at 405 nm. The assays were incubated at 37° C. for 2 hours. The absorbance was read at 405 nm. The activity (release of p-nitroaniline) was calculated from the change in absorbance.

[2] = molecular target: T1, Tap (tripeptidyl aminopeptidase); assay: Inhibition of TAP in the APA-pNA assay (protease inhibitor survey, Table I); assay type: biochemical, S. lividans 66; conditions: for remaining activity at 10000 µM / remaining activity at 1000 µM / remaining activity at 100 µM: read-out: Residual Activity
Method: The protease and inhibitor were preincubated for 15 minutes at 22° C. Substrate was added and the mixture was incubated at 37° C. Activity was measured by monitoring the change in absorbance at λ=405 nm.
as §1

[3] = inhibitor 10 mM, preincubated 15 minutes at 22° C., substrate APA-pNA, enzyme only = 100
[4] = inhibitor 1.0 mM, preincubated 15 minutes at 22° C., substrate APA-pNA, enzyme only = 100
[5] = inhibitor 0.1 mM, preincubated 15 minutes at 22° C., substrate APA-pNA, enzyme only = 100

Molecule	release of reporter group when used as substrate of Tap [1]	other results
C[C@H](N)C(=O)Nc1ccc([N+](=O)[O-])cc1 [A-pNA, L-alanine p-nitroanilide]	did not release the reporter group	
C[C@H](N)C(=O)N[C@@H](C)C(=O)Nc1ccc([N+](=O)[O-])cc1 [AA-pNA, L-alanyl-L-alanine p-nitroanilide] (H-Ala-Ala-pNA)	did not release the reporter group	
C[C@H](N)C(=O)N[C@@H](C)C(=O)N1CCC[C@H]1C(=O)N[C@@H](C)C(=O)Nc1ccc([N+](=O)[O-])cc1 [AAPA-pNA, L-alanyl-L-alanyl-L-prolyl-L-analine p-nitroanilide] (H-AAPA-pNA)	did not release the reporter group	
Cc1cc(=O)oc2cc(NC(=O)[C@H](C)NC(=O)[C@@H]3CCCN3C(=O)[C@H](C)N)ccc12 [APA-AMC, L-alanyl-L-prolyl-L-alanine 7-amino-4-methylcoumarin] (H-Ala-Pro-Ala-{AMC})	active	
C[C@H](N)C(=O)N1CCC[C@H]1C(=O)N[C@@H](C)C(=O)Nc1ccc([N+](=O)[O-])cc1 [APApNA, L-alanyl-L-prolyl-L-alanine p-nitroanilide] (H-Ala-Pro-Ala-pNA)	releases p-nitroaniline	
CSCC[C@H](NC(=O)[C@@H]1CCCN1C(=O)[C@H](C)N)C(=O)Nc1ccc([N+](=O)[O-])cc1 [APM-pNA, L-alanyl-L-prolyl-L-methione p-nitroanilide] (H-Ala-Pro-Met-pNA)	active	
C[C@H](N)C(=O)N1CCC[C@H]1C(=O)N[C@@H](CO)C(=O)Nc1ccc2ccccc2c1 [APS-bNA, L-alanyl-L-prolyl-L-serine beta-naphthylamide] (H-Ala-Pro-Ser-βNA)	active	
N=C(N)c1ccccc1 [Benzamidine]		remaining activity at 10000 µM [2, 3]: 94%
C[C@H](NC(=O)OC(C)(C)C)C(=O)N[C@@H](C)C(=O)N1CCC[C@H]1C(=O)N[C@@H](C)C(=O)Nc1ccc([N+](=O)[O-])cc1 [Boc-AAPA-pNA, N-t-butoxycarbonyl L-alanyl-L-alanyl-L-prolyl-L-alanine p-nitroanilide] (Boc-AAPA-pNA)	did not release the reporter group	
C[C@H](NC(=O)[C@@H]1CCCN1C(=O)[C@H](C)NC(=O)OC(C)(C)C)C(=O)N[C@@H](CCCNC(=N)N)C(=O)N[C@@H](CO)C(=O)N1CCC[C@H]1C(=O)N[C@@H](C)C(=O)Nc1ccc2ccccc2c1 [Boc-APARSPA-bNA, L-alanyl-L-prolyl-L-analyl-L-arginyl-L-seryl-L-prolyl-L-alanine beta-naphthylamide] (Boc-APARSPA-βNA)	did not release the reporter group	
[Ca+2].[Cl-].[Cl-] [CaCl2]		Residual Activity [2, 4]: 96; Residual Activity [2, 3]: 97
[Cl-].[Cl-].[Co+2] [CoCl2]		Residual Activity [2, 4]: 98; Residual Activity [2, 3]: 97
N=C(N)NCCC[C@H](NC(=O)[C@H](Cc1ccccc1)NC(=O)[C@H]1CCCN1)C(=O)Nc1ccc([N+](=O)[O-])cc1 [D-PFR-pNA, D-prolyl-L-phenylalanyl-L-arginine p-nitroanilide] (H-[dP]-Phe-Arg-pNA)	did not release the reporter group	
OC(CS)C(O)CS (stereo not drawn) [DTT]		remaining activity at 1000 µM [2, 4]: 86%
O=C(O)CN(CCN(CC(=O)O)CC(=O)O)CC(=O)O [EDTA, Ethylenediaminetetraacetic acid]		remaining activity at 1000 µM [2]: 95%; remaining activity at 10000 µM [2]: 95%
CC(C)C[C@H](NC(=O)N[C@H](C(=O)N[C@@H](CCC(N)=O)C(=O)N[C@@H](C)C=O)[C@@H]1CCNC(=N)N1)C(=O)O [Elastatinal]		remaining activity at 100 µM [2, 5]: 97%
NCC(=O)N1CCC[C@H]1C(=O)Nc1ccc([N+](=O)[O-])cc1 [GP-pNA, Glycyl-L-proline p-nitroanilide] (H-Gly-Pro-pNA)	did not release the reporter group	
CC(C)C[C@H](NC(=O)[C@@H]1CCCN1C(=O)CN)C(=O)Nc1ccc2ccccc2c1 [GPL-bNA, Glycyl-L-prolyl-L-leucine beta-napthylamide] (H-Gly-Pro-Leu-βNA)	active	
[Cl][Hg][Cl] [HgCl1]		Residual Activity [2, 5]: 99; Residual Activity [2, 4]: 93
CC(C)C[C@H](N)C(=O)Nc1ccc([N+](=O)[O-])cc1 [L-pNA, L-leucine p-nitroanilide]	did not release the reporter group	
CC(=O)N[C@@H](C)C(=O)N1CCC[C@H]1C(=O)N[C@@H](C)C(=O)Nc1ccc([N+](=O)[O-])cc1 [N-Ac-APA-pNA, N-acetyl-L-alanyl-L-prolyl-L-alanine p-nitroanilide] (Ac-Ala-Pro-Ala-pNA)	did not release the reporter group	
N=C(N)NCCC[C@H](NC(=O)c1ccccc1)C(=O)Nc1ccc([N+](=O)[O-])cc1 [N-Bz-R-pNA]	did not release the reporter group	
O=C(Nc1ccc([N+](=O)[O-])cc1)[C@@H]1CCCN1 [P-pNA, L-proline p-nitroanilide]	did not release the reporter group	
CC(C)CC(=O)N[C@H](C(=O)N[C@H](C(=O)N[C@@H](CC(C)C)[C@@H](O)CC(=O)N[C@@H](C)C(=O)N[C@@H](CC(C)C)[C@@H](O)CC(=O)O)C(C)C)C(C)C [Pepstatin] (Isovaleryl-VV[Sta]A[Sta]-OH)		remaining activity at 100 µM [2, 5]: 95%
N=C(N)NCCC[C@H](N)C(=O)Nc1ccc([N+](=O)[O-])cc1 [R-pNA, L-arginine p-nitroanilide]	did not release the reporter group	
N[C@@H](CO)C(=O)Nc1ccc2ccccc2c1 [S-bNA, L-serine beta-naphthylamide]	did not release the reporter group	
C[C@H](NC(=O)[C@@H]1CCCN1C(=O)[C@@H](N)CO)C(=O)Nc1ccc2ccccc2c1 [SPA-bNA, L-seryl-L-prolyl-L-alanine beta-naphthylamide] (H-Ser-Pro-Ala-βNA)	active	
Chymostatin		Residual Activity [2, 5]: 98
N-benzoyl-L-alanyl-glycyl-L-arginine p-nitroanilide [N-Bz-VGR-pNA]	did not release the reporter group	
